According to ChEMBL document CHEMBL3507680, “University of Dundee, Gates Library screen for HepG2 cell viability”:

Experiment: Human HepG2 cell viability assay in 384 well format
Assay type: toxicity, cell-based
Parameters: dose 125 nL, time 70.5 hour; cytotoxicity at 70.5 h: concentration not given beside the values
Settings: HepG2 cells, read-out: Inhibition

| Compound | cytotoxicity at 70.5 h |
| --- | --- |
| CNS(=O)(=O)c1cccc(C(C)NCc2ccccc2)c1 (stereo unspecified) | -2.31% |
| CC(=O)N1CCCC(Cc2cncc(Br)c2)C1 (stereo unspecified) | -1.98% |
| COCCNC(=O)C(C)S(=O)(=O)c1ccc(OC)cc1 (stereo unspecified) | 6.85% |
| COCc1ncc(CN2CCC3(CCNCC3)CC2)cn1 | -2.36% |
| O=C(NCC(F)(F)F)C1CSCN1S(=O)(=O)c1cccc(F)c1 (stereo unspecified) | -12% |
| COCCN(Cc1ccc(F)cc1Cl)C(=O)c1cc(C)n[nH]1 | -0.839% |
| N#Cc1ccc(F)c(CN2CCCCC2Cn2cccn2)c1 (stereo unspecified) | 0.631% |
| COC(=O)C1=NOC(Cc2cc(OC)c3c(c2)OCO3)C1 (stereo unspecified) | -20.2% |
| CCCc1cncnc1N1CCC(NCc2cc3ccccc3[nH]2)CC1 | 8.09% |
| CCc1noc(CNCCn2cc(C)cn2)n1 | -3.69% |
| CC(C)NC(=O)NCCCOC1CCOCC1 | -4.28% |
| CCC1CCCN(C(=O)Cc2csc(-c3ncccn3)n2)C1 (stereo unspecified) | 36.3% |
| Cc1nc(C)c(CC(=O)Nc2ncc(C)s2)c(=O)[nH]1 | -1.19% |
| COc1ccsc1C(=O)N1CCCC(n2nc(C)nc2C)C1 (stereo unspecified) | 3.22% |
| Cc1ccc(NC2CCN(C(=O)CCNc3ncccn3)CC2)nn1 | -9.43% |
| CN1CCN(c2ncc(CNCCCc3cccc(F)c3)cn2)CC1 | 25.4% |
| Cc1occc1C(=O)NCC(O)c1ccc(Cl)s1 (stereo unspecified) | 3.32% |
| c1cncc(-c2ccc3c(c2)CCC32CCN(Cc3ccco3)CC2)c1 | -0.391% |
| Cc1oc(-c2ccsc2)nc1CC(=O)NCCCS(C)(=O)=O | 15.4% |

| Compound | cytotoxicity at 70.5 h |
| --- | --- |
| CC1c2ncc(Cn3cccn3)n2CCN1S(=O)(=O)C1CC1 (stereo unspecified) | -5.83% |
| CCS(=O)(=O)c1ncc(CN2CCN(C)CC2)n1CCc1ccccc1 | -3.88% |
| CNc1ncc2c(n1)CN(CCc1ccccc1)C2=O | -12.7% |
| CCN1CCc2[nH]cnc2C12CCN(c1ccc(Cl)cn1)CC2 | -4.3% |
| CCNc1cc2c(nn1)CCN(C(=O)c1cc3nc(C)ccc3o1)C2 | 22.7% |
| CCOC1CCN(CCc2nc(-c3cccc(Cl)c3)no2)CC1 | 16.1% |
| CCc1nn(C)c(Cl)c1CN1CCCC2(C1)CN(C)C(=O)O2 (stereo unspecified) | -11.8% |
| NC(=O)CN(CC(=O)NCc1cccc(Cl)c1)C1CCCC1 | -11.2% |
| NC(=O)c1cc2c(nc1N1C[C@H]3OC(=O)N(C4CCCC4)[C@H]3C1)CCC2 | -10.7% |
| NC(=O)NC1CCN(Cc2ccccc2OCC(F)(F)F)CC1 | -4.28% |
| Cc1cnc(N2CCc3onc(COc4cccnc4)c3C2)nc1 | -3.25% |
| Cn1cccc1C(=O)N1C[C@H]2CN(CCN3CCCC3)C(=O)[C@H]2C1 | -8.62% |
| Cc1nccn1-c1ccccc1CNC(=O)c1cn(CCN)nn1 | 1.29% |
| CSc1ncccc1C(=O)N1CCC(c2nc3c(C)cccc3[nH]2)CC1 | 12.8% |
| CC(C)c1nnc(NCc2cc3n(n2)CCNC3)s1 | -8.56% |
| O=C1NCCO[C@H]2CN(C(=O)Cc3cccs3)CC[C@@H]12 | -7.13% |
| Cc1cc(-c2cnc(N3CCSCC3)nc2-c2ccc(C)s2)on1 | -7.01% |
| O=C(c1cnccn1)N1CC(S(=O)(=O)c2ccc(Cl)cc2)C1 | -4.33% |
| CC(=O)NC(CC(=O)Nc1nc(C)c(C)s1)c1ccccc1 (stereo unspecified) | 0.551% |

| Compound | cytotoxicity at 70.5 h |
| --- | --- |
| O=C(c1cnccn1)N1CCCC2(CCN(c3ncccn3)C2)C1 (stereo unspecified) | 4.46% |
| O=C(c1ccc(-c2nc[nH]n2)cc1)N1CCOC(C(F)(F)F)C1 (stereo unspecified) | 23.3% |
| COCCNC(=O)[C@@H]1C[C@H]2[C@H](CCN2c2cc(OC)ncn2)O1 | -10.5% |
| CS(=O)(=O)c1nnc(NC(=O)CCc2cc(F)ccc2F)[nH]1 | -14.9% |
| CN(CCOc1ccc(F)cc1)S(=O)(=O)c1cnn(C)c1 | -8.4% |
| O=C([C@@H]1C[C@@H]2CCN(Cc3ccc4c(c3)OCO4)C[C@@H]2O1)N1CCCC1 | -11.1% |
| COc1ccc(C(=O)N2CCCS2(=O)=O)cc1OC | -1.63% |
| COc1cccc2ccn(CC(=O)NC(C)C)c12 | 11.3% |
| O=C(NC1CC1)N1CCCC2(CCCCN2)C1 (stereo unspecified) | -5.05% |
| Fc1cccc(Cl)c1Cn1ncnc1CSCCN1CCCC1 | -6.36% |
| CCC(=O)N1CCCC1(C)c1nc(C)no1 (stereo unspecified) | -6.82% |
| Cn1cc(N2CCC(NC(=O)c3c(F)cccc3F)C2=O)cn1 (stereo unspecified) | -2.48% |
| CCc1ncnc2c1CCN(c1ncc(F)cn1)CC2 | -7.64% |
| CC1c2ncc(CN3CCN(C)CC3)n2CCN1Cc1cccnc1 (stereo unspecified) | -15.8% |
| O=S(=O)(c1ccccc1)N1C[C@@H]2CCCCN(Cc3cccs3)[C@@H]2C1 | -17.2% |
| CC1CCN(c2cc(-n3cnc(C(=O)N4CCSCC4)c3)ncn2)CC1 | -13.5% |
| CC(C)c1nnc(NCCS(C)(=O)=O)s1 | -0.429% |
| CCCS(=O)(=O)N1CCN(c2cc(-n3cnc(C)c3C)nc(C)n2)CC1 | -4.37% |
